Measurements from patent US11903917B2, “MEK-inhibitor for the treatment of viral and bacterial infections” (priority 2017, dated 2024).
pEC50: −log10 of the molar value. Values joined by “and” are separate entries in the source; they are usually repeats but may differ in a detail not shown here. Equal values may be shown once.

Tests used:
S. aureus 6850 [1] = format: cell-based, Staphylococcus aureus
[2] = system: A549 cells infected with influenza virus (IV) and S. aureus 6850; assay: Example 8: cytopathic effect in A549 cells infected with influenza virus and S. aureus 6850, light microscopy; format: cell-based, human; details: 10 μM, until 24 h p.i., super-infection
Procedure: Influenza virus (IV) infection results in enhanced expression of antiviral cytokines, most importantly type I IFNs that activate critical downstream antiviral responses and may also potentiate subsequent bacterial infections. […] Specifically, A549 cells were pre-treated for 1 h with 10 μM of the specific MEK-inhibitor PD-0184264 or DMSO as solvent control. Afterwards, cells were rinsed with PBS and infected with influenza virus (IV) (MOI as indicated) for 30 min at 37° C., 5% CO2. Subsequently, cells were washed with PBS and infected with S. aureus 6850 (MOI as indicated) in the presence or absence of the inhibitor for 3 h. To avoid bacterial over-growth, an antibiotic wash step with lysostaphin (2 μg/mL) was performed for 20 min at 37° C. to remove not-internalized bacteria. Then, cells were washed once and were further incubated until 24 h p.i. in the presence of the inhibitor or solvent. At the end of the incubation period, the cell monolayer was analyzed via light microscopy.

[3] = Pharmacokinetics, drug in plasma after i.v. or per os application; format: in vivo, NMRI mice
Procedure: Blood was collected at 15 min, 30 min, 1 h, 2 h, 4 h, 6 h, 8 h and 24 h (test day 2) after administration and plasma was analysed for the presence of the drug. […] Blood was collected at 15 min, 30 min, 1 h, 2 h, 4 h, 6 h, 8 h and 24 h (test day 2) after administration and plasma was analysed for the presence of the drug. Each data point represents the mean value of three plasma samples. Graphpad Prism 7 software was used to illustrate both figures.
34.88 mg PD-0184264 were dissolved in 0.075 ml DMSO and further diluted with 0.225 ml Cremophor EL/2.7 ml PBS. […] 81.0 mg PD-0184264 were dissolved in 0.2 ml DMSO/0.6 ml Cremophor EL/3.2 ml PBS.
Eight week old male NMRI mice (Charles River Laboratories, Germany) with a body weight of 23.9-36.5 g at administration were used for pharmacokinetic studies. The animals were normally fed. Drinking water was available ad libitum.
Experiments were performed at LPT GmbH (Hamburg, Germany). Sufficient whole blood—taken under isoflurane anaesthesia—was collected to obtain at least 2×100 μl Li-Heparin plasma of 3 animals per group and time-point at the following times: 0 (predose), 15 min, 30 min, 1 h, 2 h, 4 h, 6 h, 8 h and 24 h (test day 2) after administration. The whole blood samples were instantly cooled using an Iso-Therm-Rack system (Eppendorf AG, Germany) until centrifugation within 0.5 hours after withdrawal. Immediately after centrifugation, the samples were stored at −20° C. until further analysis. Plasma analysis was performed using standard procedures at Prolytic GmbH (Frankfurt, Germany).
Drugs were either administrated using a single dosing on test day 1 by oral gavage or by Intravenous bolus injection into a tail vein. The Injection speed was 15 s/dose with an administration volume of 200 μl.

[4] = system: A549 cells infected with A/Puerto Rico/8/34 (H1N1) and/or S. aureus 6850; format: cell-based
S. aureus 6850 [5] = assay: Over-night treated culture, bacterial titers (CFU/ml) and OD600; format: cell-based, Staphylococcus aureus
A549 cells = assay: A549 cell viability (trypan blue) and LDH release; format: cell-based, human; details: 1-100 μM, 24 and 48 hours
Procedure: To rule out that the reduction in viral and intracellular bacterial replication was a result of a cytotoxic effect of PD-0184264 on A549 cells, cell viability in presence of increasing concentrations was monitored for 24 and 48 hours. Additionally, a LDH-Assay was performed to determine membrane rupture due to inhibitor treatment. […] A549 cells were treated for 24 (as shown in FIGS. 15A and C) or 48 (as shown in FIGS. 15B and D) hours with increasing concentrations of PD-0184264 (1, 5, 10, 20, 50 or 100 μM). After the incubation times, supernatants were taken for measurement of LDH release (shown in FIGS. 15C, D) using the CytoSelect LDH Cytotoxicity Assay Kit according to the manufacturer's instructions. Additionally, viable cells were counted by staining with trypan blue. Cell viability was normalized to DMSO-treated cells and is shown as % viability. […] Statistical significance was calculated by one-way ANOVA followed by Dunnett's multiple comparisons test (*p<0.05; **p<0.01; […]***p<0.001).

[6] = system: influenza A virus strain RB1 [A/Regensburg/D6/09 (H1N1 pdm09)]; assay: Progeny virus inhibition assay in A549 cells; format: cell-based
MRSA strain USA300 = assay: Over-night treated culture, bacterial titers (CFU/ml) and OD600; format: cell-based, Staphylococcus aureus
Bacillus subtilis = assay: Bacterial load of B. subtilis after 18 h (OD600, plating); format: cell-based
Procedure: Specifically, to test for a potential antibacterial effect on B. subtilis, over-night cultures of B. subtilis were incubated with either solvent or different concentrations of the MEK inhibitor PD-0184264 (as indicated) for 18 h. Afterwards, bacterial load was determined via measurement of the OD600 and plating of serial dilutions on BHI agar plates. Data shown in FIG. 11 represent means+SD of three independent experiments.

Compound: O=C(O)c1ccc(F)c(F)c1Nc1ccc(I)cc1Cl [PD-0184264, 2-(2-chloro-4-iodophenylamino)-N-3,4-difluoro benzoic acid]
- intracellular bacterial titers (S. aureus 6850 [1]): reduced intracellular bacterial titers
- cytopathic effect (CPE) [2]: completely abolished
- drug in plasma at eight hours ([3]; 150 mg/kg per os application): still a high concentration
- AUC ([3]; mouse, plasma, iv, male NMRI mice, route of this value not stated (75 mg/kg i.v. / 150 mg/kg per os)): 1950 µg·h/mL
- concentration already showing reduction of the cytopathic effect ([4]; bacterial and viral co-infection, FIG. 5): 15 µM
- cytopathic effect (CPE), cell monolayer disruption ([4]; increasing concentrations, 24 h, IAV (H1N1) MOI 0.001 and S. aureus 6850 MOI 0.1): reversed in a concentration dependent manner
- reduction of bacterial growth (FIG. 4) (S. aureus 6850 [5]; 10 μM, over night, S. aureus 6850): significant reduction of growth
- reduction of bacterial titers (S. aureus 6850 [5]; 20 μM, over night, S. aureus 6850, CFU/ml): 1.5-2 orders of a magnitude
- effect on bacterial titers (CFU/ml) (S. aureus 6850 [5]; over night treatment, S. aureus 6850, vs solvent): very strong reduction in bacterial load
- cell toxicity (cell viability, LDH release) (A549 cells): does not induce cell toxicity
- reduction of progeny virus [6]: almost no reduction
- reduction of virus titer [6]: 98.87±0.03% and 91.50±2.08% and 58.97±4.45%
- fold higher EC50 value compared to the EC50 value of CI-1040 ([6]; CI-1040 value from Haasbach et al. 2017): 31 fold
- pEC50 ([6]; Influenza A virus, H1N1, RB1 on A549 cells, FIG. 17B): 6.09
- S.I. (selectivity index) ([6]; against RB1 on A549 cells): 1960
- fold higher concentration needed to achieve similar reduction of progeny influenza virus as 10 μM CI-1040 ([6]; in vitro, A549): ~10 fold
- reduction of bacterial growth (FIG. 4) (MRSA strain USA300; 10 μM, over night, MRSA USA300): significant reduction of growth
- reduction of bacterial titers (MRSA strain USA300; 20 μM, over night, MRSA USA300, CFU/ml): 1.5-2 orders of a magnitude
- effect on bacterial titers (CFU/ml) (MRSA strain USA300; over night treatment, MRSA USA300, vs solvent): very strong reduction in bacterial load
- viable bacterial counts (Bacillus subtilis; 10 μM): strong decrease in viable bacterial counts
- viable bacterial counts (Bacillus subtilis; concentrations higher than 10 μM): complete abolishment
